Assay results reported in ChEMBL document CHEMBL1146654, “3-(7-Azaindolyl)-4-arylmaleimides as potent, selective inhibitors of glycogen synthase kinase-3” (Bioorg Med Chem Lett, 2004).

Key:
[1] = biological target: Cyclin-dependent kinase 2/cyclin A (Homo sapiens) (UniProt P24941+P20248+P78396); experiment: Inhibition of Cyclin-dependent kinase 2-cyclin A; assay type: protein-complex assay; design: scale not given: the % may be the effect or the level left
[2] = biological target: CDK3/cyclin E (Homo sapiens) (UniProt P24864+O96020+Q00526); experiment: Inhibition of Cyclin-dependent kinase 3-cyclin E; assay type: protein-complex assay; design: scale not given: the % may be the effect or the level left
[3] = biological target: Fibroblast growth factor receptor 3 (Homo sapiens) (UniProt P22607); experiment: Inhibition of Fibroblast growth factor receptor 3; design: scale not given: the % may be the effect or the level left
[4] = biological target: T1, Inhibitor of nuclear factor kappa-B kinase subunit beta (Homo sapiens) (UniProt O14920); experiment: Inhibition of I-kappa-B-kinase beta; design: scale not given: the % may be the effect or the level left
T1 sequence (whole entry): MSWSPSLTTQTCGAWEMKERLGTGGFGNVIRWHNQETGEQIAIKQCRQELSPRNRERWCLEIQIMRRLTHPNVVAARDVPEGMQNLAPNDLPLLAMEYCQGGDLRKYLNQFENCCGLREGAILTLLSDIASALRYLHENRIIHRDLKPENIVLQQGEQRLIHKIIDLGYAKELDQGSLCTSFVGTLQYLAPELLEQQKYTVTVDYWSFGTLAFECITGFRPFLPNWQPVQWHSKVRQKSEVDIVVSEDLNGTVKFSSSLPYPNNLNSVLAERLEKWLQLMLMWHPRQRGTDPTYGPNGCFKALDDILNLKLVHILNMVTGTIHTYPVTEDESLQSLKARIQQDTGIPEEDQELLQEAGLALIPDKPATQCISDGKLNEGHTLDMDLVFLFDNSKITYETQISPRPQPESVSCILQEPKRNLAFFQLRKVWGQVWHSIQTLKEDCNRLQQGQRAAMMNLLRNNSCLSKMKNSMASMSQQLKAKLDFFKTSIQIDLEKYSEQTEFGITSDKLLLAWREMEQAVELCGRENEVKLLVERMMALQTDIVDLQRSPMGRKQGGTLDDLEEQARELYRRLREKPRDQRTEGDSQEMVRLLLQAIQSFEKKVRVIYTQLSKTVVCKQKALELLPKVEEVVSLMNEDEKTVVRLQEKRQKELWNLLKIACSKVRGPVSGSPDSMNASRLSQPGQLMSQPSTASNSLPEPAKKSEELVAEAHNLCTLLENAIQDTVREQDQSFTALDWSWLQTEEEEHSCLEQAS

[5] = biological target: Mitogen-activated protein kinase 1 (Homo sapiens) (UniProt P28482); experiment: (§1) Inhibition of mitogen-activated protein kinase 2; design: scale not given: the % may be the effect or the level left
[6] = biological target: Mitogen-activated protein kinase 1 (Mus musculus) (UniProt P63085); experiment: as §1; design: scale not given: the % may be the effect or the level left
[7] = biological target: T2, Dual specificity mitogen-activated protein kinase kinase 4 (Mus musculus) (UniProt P47809); experiment: Inhibition of Mitogen activated protein kinase kinase 4; design: scale not given: the % may be the effect or the level left
T2 sequence (whole entry): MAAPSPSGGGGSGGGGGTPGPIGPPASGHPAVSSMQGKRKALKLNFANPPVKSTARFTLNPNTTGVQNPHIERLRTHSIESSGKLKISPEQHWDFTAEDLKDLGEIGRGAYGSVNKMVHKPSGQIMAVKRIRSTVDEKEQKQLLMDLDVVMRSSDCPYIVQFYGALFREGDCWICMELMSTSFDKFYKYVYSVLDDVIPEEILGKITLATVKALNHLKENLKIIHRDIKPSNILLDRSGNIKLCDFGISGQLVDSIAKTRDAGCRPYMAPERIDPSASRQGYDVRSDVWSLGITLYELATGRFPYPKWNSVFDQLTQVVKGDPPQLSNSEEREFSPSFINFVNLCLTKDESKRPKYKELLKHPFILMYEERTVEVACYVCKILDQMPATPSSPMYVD

Homo sapiens = species: Homo sapiens; experiment: Inhibition of PKA; design: scale not given: the % may be the effect or the level left
[8] = biological target: T3, Protein kinase C gamma type (Homo sapiens, UniProt P05129); experiment: Inhibitory activity of 10 uM compound against protein kinase C-gamma using histone as substrate
[9] = biological target: RAC-alpha serine/threonine-protein kinase (Homo sapiens) (UniProt P31749); experiment: Inhibition of PKBalpha; design: scale not given: the % may be the effect or the level left
[10] = biological target: RAC-beta serine/threonine-protein kinase (Homo sapiens) (UniProt P31751); experiment: Inhibition of PKBbeta; design: scale not given: the % may be the effect or the level left
[11] = biological target: T3, Protein kinase C gamma type; experiment: Inhibition of PKCgamma; design: scale not given: the % may be the effect or the level left
[12] = biological target: Rho-associated protein kinase 2 (Homo sapiens) (UniProt O75116); experiment: (§2) Inhibition of ROCK-II; design: scale not given: the % may be the effect or the level left
[13] = biological target: Rho-associated protein kinase 2 (Rattus norvegicus) (UniProt Q62868); experiment: as §2; design: scale not given: the % may be the effect or the level left
[14] = biological target: Ribosomal protein S6 kinase (P70S6K) (Homo sapiens) (UniProt Q9UBS0+P23443); experiment: Inhibition of p70 Ribosomal protein S6 kinase; assay type: protein-complex assay; design: scale not given: the % may be the effect or the level left
[15] = biological target: Tyrosine-protein kinase SYK (Homo sapiens) (UniProt P43405); experiment: Inhibition of Syk protein tyrosine kinase; design: scale not given: the % may be the effect or the level left
[16] = biological target: T4, Mitogen-activated protein kinase 13 (Homo sapiens) (UniProt O15264); experiment: Inhibition of Stress activated protein kinase 4; design: scale not given: the % may be the effect or the level left
T4 sequence (whole entry): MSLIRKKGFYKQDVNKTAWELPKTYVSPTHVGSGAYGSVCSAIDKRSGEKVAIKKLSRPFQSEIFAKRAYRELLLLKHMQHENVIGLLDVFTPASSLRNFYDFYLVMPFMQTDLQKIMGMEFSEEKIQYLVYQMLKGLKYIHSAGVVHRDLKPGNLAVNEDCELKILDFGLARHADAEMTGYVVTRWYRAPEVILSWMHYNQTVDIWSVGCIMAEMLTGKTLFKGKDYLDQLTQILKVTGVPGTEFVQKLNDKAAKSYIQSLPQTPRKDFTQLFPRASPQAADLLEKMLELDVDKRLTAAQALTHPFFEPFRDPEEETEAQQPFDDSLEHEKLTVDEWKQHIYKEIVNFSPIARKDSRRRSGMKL

[17] = biological target: Tyrosine-protein kinase CSK (Homo sapiens) (UniProt P41240); experiment: Inhibition of Tyrosine-protein kinase CSK; design: scale not given: the % may be the effect or the level left
Sequence of Tyrosine-protein kinase CSK (Homo sapiens) (P41240 2-450 limits assumed): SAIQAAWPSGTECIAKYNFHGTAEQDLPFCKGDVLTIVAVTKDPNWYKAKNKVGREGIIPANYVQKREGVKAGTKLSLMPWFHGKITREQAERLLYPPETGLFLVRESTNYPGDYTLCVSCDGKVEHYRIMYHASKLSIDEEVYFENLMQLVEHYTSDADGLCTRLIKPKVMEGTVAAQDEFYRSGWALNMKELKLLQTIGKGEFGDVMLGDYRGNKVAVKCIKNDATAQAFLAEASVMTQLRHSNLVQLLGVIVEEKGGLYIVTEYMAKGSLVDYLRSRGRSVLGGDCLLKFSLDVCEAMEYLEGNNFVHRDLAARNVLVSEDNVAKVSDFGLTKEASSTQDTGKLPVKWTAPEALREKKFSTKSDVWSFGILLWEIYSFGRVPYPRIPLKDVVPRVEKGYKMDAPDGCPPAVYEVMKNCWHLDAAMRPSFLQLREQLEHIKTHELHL

Sequence of Mitogen-activated protein kinase 1 (Homo sapiens) (P28482 whole entry): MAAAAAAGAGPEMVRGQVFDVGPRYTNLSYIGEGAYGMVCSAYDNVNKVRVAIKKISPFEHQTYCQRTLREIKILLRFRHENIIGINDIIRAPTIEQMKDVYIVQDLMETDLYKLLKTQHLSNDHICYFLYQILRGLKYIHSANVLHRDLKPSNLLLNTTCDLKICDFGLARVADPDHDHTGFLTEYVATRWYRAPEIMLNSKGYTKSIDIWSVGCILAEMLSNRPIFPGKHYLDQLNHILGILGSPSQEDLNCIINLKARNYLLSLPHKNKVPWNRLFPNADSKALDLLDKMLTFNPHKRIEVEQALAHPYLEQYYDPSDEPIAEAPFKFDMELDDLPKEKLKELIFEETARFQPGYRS
Sequence of Fibroblast growth factor receptor 3 (Homo sapiens) (P22607 23-806 limits assumed): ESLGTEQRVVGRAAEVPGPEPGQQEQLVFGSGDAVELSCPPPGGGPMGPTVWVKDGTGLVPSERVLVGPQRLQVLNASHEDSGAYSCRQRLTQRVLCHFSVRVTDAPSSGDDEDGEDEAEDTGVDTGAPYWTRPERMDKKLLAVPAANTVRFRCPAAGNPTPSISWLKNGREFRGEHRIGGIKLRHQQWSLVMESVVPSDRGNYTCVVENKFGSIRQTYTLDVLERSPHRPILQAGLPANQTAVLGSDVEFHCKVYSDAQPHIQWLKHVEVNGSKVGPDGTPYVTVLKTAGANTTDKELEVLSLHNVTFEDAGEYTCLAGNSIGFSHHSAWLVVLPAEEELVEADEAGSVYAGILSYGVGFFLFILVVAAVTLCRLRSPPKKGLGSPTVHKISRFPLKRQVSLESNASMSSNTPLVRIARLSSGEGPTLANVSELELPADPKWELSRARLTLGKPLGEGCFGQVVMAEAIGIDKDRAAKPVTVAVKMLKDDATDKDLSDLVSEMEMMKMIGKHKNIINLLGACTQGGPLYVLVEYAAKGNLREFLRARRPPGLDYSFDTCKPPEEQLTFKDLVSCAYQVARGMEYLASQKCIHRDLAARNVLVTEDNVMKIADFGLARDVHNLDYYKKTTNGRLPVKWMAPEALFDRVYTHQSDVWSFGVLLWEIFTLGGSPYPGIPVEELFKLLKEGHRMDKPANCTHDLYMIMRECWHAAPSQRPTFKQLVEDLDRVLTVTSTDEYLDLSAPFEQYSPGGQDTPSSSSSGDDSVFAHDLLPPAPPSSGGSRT
Sequence of RAC-beta serine/threonine-protein kinase (Homo sapiens) (P31751 whole entry): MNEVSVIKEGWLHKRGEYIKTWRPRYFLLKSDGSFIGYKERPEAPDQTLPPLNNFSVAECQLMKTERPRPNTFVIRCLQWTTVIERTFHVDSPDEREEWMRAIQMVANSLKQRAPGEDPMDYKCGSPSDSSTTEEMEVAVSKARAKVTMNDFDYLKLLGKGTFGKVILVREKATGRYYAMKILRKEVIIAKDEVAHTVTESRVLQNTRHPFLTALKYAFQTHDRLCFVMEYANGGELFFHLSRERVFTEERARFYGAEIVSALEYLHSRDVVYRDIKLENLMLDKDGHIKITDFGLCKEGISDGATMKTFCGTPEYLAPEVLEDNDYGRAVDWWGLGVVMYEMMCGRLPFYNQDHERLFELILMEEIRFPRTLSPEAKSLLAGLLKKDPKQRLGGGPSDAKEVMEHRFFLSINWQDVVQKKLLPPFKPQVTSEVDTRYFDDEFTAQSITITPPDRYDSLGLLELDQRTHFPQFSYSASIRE
Sequence of Rho-associated protein kinase 2 (Rattus norvegicus) (Q62868 whole entry, looked up): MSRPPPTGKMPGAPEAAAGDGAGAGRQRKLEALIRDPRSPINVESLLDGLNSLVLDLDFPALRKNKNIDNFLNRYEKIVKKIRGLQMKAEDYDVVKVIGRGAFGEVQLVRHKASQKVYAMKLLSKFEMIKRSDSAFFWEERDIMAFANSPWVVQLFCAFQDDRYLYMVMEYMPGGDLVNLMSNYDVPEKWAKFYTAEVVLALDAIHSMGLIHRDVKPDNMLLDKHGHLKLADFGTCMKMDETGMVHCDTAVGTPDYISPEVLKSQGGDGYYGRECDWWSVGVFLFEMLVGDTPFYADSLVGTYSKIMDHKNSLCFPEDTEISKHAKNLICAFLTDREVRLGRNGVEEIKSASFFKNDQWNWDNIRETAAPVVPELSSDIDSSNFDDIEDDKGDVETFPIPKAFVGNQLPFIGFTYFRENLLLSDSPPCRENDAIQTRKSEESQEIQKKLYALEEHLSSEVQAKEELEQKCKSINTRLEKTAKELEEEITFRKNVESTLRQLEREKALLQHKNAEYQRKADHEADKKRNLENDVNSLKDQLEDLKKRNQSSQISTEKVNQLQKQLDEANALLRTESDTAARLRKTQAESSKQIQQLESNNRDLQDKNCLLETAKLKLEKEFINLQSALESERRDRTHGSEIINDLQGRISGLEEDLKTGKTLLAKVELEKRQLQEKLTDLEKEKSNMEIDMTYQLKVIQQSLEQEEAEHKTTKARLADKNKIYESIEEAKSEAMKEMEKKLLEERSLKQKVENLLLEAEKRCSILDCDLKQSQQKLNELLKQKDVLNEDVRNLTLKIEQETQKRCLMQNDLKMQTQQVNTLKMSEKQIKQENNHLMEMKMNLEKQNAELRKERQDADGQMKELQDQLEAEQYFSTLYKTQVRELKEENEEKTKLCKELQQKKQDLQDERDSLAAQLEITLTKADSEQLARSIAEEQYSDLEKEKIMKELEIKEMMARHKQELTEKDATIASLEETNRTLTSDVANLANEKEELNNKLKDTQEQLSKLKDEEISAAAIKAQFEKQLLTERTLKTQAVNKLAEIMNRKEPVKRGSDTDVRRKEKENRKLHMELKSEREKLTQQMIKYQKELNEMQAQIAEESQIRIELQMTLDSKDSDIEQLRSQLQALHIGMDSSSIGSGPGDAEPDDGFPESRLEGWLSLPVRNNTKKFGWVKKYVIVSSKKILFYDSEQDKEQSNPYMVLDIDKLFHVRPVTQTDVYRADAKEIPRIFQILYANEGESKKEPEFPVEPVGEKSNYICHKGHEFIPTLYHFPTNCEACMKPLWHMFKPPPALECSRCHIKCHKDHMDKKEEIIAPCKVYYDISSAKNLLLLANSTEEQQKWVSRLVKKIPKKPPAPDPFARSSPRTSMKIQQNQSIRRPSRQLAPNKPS
Sequence of RAC-alpha serine/threonine-protein kinase (Homo sapiens) (P31749 whole entry): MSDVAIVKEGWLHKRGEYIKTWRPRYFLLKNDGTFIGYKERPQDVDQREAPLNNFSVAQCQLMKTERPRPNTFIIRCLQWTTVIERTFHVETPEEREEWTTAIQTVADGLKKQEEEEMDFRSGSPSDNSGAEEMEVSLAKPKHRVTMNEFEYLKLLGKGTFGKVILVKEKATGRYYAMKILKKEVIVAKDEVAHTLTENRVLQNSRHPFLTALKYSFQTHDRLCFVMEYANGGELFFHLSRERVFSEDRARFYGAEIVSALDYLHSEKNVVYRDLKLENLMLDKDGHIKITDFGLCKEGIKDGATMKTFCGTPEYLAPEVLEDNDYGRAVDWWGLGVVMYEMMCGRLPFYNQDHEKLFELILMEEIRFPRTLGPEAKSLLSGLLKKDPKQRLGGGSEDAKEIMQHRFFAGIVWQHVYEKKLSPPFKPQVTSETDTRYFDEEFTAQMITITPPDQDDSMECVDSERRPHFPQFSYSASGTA
Sequence of Mitogen-activated protein kinase 1 (Mus musculus) (P63085 whole entry): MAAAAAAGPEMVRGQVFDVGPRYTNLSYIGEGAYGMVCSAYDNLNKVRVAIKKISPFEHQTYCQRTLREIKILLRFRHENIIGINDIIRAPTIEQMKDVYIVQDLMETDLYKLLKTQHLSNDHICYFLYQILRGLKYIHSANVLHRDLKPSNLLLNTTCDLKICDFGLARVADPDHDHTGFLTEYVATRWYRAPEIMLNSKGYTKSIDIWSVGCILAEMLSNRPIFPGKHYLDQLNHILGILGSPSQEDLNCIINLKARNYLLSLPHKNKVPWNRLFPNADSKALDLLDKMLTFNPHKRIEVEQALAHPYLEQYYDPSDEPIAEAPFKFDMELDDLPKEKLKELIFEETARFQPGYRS

SMILES | Activity [1] | Activity [2] | Activity [3] | Activity [4] | Activity [5] | Activity [6] | Activity [7] | Activity (Homo sapiens) | inhibition [8] | Activity [9] | Activity [10] | Activity [11] | Activity [12] | Activity [13] | Activity [14] | Activity [15] | Activity [16] | Activity [17]
COCCCn1cc(C2=C(c3ccccc3O)C(=O)NC2=O)c2cccnc21 | 9% | 26% | 79% | 81% | 92% | 100% | 86% | 92% | < 50% | 93% | 82% | 59% | 100% | 94% | 87% | 86% | 97% | 89%
COc1ccccc1C1=C(c2cn(CCCNC(=O)OC(C)(C)C)c3ncccc23)C(=O)NC1=O | 2% | 3% | 83% | 91% | 92% | 89% | 101% | 95% | < 50% | 103% | 99% | 76% | 78% | 91% | 82% | 88% | 100% | 95%
O=C1NC(=O)C(c2cn(CCCO)c3ncccc23)=C1c1ncc(C(F)(F)F)cc1Cl | 25% | 62% | 64% | 83% | 91% | 93% | 87% | 87% | < 50% | 64% | 69% | 72% | 90% | 97% | 88% | 76% | 86% | 74%
